Where “and” joins values, the source holds several entries; their conditions need not be identical. Equal values may be shown once. Read-outs that look alike come from different tables or passages of the source.
Columns and labels:
[1] = Experimental: Intact prodrug and the metabolite 9-[2-(phosophonomethoxy)ethyl]adenine (PMEA) and the respective mono-acids were measured in the plasma at 0 (predose), 0.33, 1, 3, 5, 8, and 12 hrs post dose by HPLC using fluorescence detection. The pharmacokinetic parameters were calculated based on noncompartmental analysis of the concentration-time profile.
[2] = Pharmacokinetics and oral bioavailability in beagle dog; assay type: in vivo
Experimental: Following an i.v. bolus and oral administration of 8 and 40 mg/kg (prodrug equivalent dose), respectively, of Compound 4 in PEG-400 to male beagle dogs (n=4), blood samples were collected at the following times: 5, 15, 30, 45 min and 1, 2, 4, 6, 8, 12, and 24 hrs post each dosing occasion. In addition, urine was collected over the following intervals: 0–12, 12–24, 24–48, and 48–72 hrs. Intact Compound 4 and PMEA were measured in the plasma and urine samples using an LC-MS/MS method. PK parameters were determined by non-compartmental analysis.

[3] = Plasma and urine PMEA following oral Compound 4 and bis POM PMEA in rats; assay type: in vivo, rat; settings: 30 mg/kg PMEA equivalents p.o.
Experimental: PMEA levels (0–12 h) were quantified in plasma by fluorescence HPLC following chloroacetaldehyde derivatization. PMEA levels in urine were quantified 48 hours after treatment.
Plasma drug levels: PMEA was determined in plasma by a modification of the procedure described in the literature (Shaw J P, Louie M S, Krishnamurthy V V, Arimilli M N, Jones R J, Bidgood A M, Lee W A, & Cundy K C, Drug Metabolism and Disposition, 25:362–366 (1997)). Plasma (100 μL) samples were extracted with 2 volumes of 0.1% TFA in acetonitrile. Following centrifugation to remove the precipitate, the supernatant was evaporated to dryness. The dried plasma was reconstituted with 200 μL of the derivatization cocktail consisting of 0.34% chloroacetaldehyde in 100 mM sodium acetate pH 4.5 and incubated at 95° C. for 40 min. The samples were evaporated to dryness and reconstituted with mobile phase for analysis by HPLC. The derivatized PMEA was analyzed by an HPLC system (Hewlett Packard 1090) consisting of a Beckman Ultrasphere ODS 4.6×150 mm (5 μm) column developed with a 20-min gradient of 0–30% acetonitrile in 20 mM potassium phosphate pH 6.2. Fluorescence was monitored at an excitation and emission wavelength of 240 and 420 nm, respectively. The column temperature was 40° C. and the flow rate was 1.5 mL/min. The derivatized PMEA was detected and quantified by comparison to an authentic standard prepared in plasma and eluted at approximately 6 minutes. The limit of quantitation of PMEA, was 0.25 μg/mL.
Urinary excretion studies: The percent excretion of PMEA in urine was assessed by a modification of a previously described procedure (Russell J W, Marrero D, Whiterock V J, & Klunk L J, J Chromatog, 572:321–326 (1991)). Aliquots (0.25–0.5 mL) of urine samples and spiked standards were incubated with an equal volume of 17% (v/v) of 50% chloroacetaldehyde in 100 mM sodium acetate pH 4.5 at 50° C. for 4 hrs. Following centrifugation, the supernatant was analyzed by the HPLC method described in the previous section.

[4] = system: freshly isolated rat hepatocytes; settings: 250 μM prodrug
Experimental: PMEA prodrugs were tested.
Hepatocytes were prepared from fed Sprague-Dawley rats (250–300 g) according to the procedure of Berry and Friend (Berry, M. N. Friend, D. S., J. Cell Biol. 43:506–520 (1969)) as modified by Groen (Groen, A. K. et al., Eur. J. Biochem 122:87–93 (1982)). Hepatocytes (60 mg/ml wet weight, >85% trypan blue viability) were incubated in 2 ml of krebs-bicarbonate buffer containing 20 mM glucose, and 1 mg/ml BSA for 4 hours in the presence of 250 μM PMEA prodrugs (from 25 mM stock solutions of prodrugs in methanol). At appropriate time points throughout the incubation (0, 1, 2, 4 hours), 400-μl aliquots of the cell suspension were taken and centrifuged through a silicon/mineral oil layer into 10% perchloric acid to extract intracellular nucleotides. The acidic cell extracts were neutralized with 0.3 volumes of 3M KOH/3M […] before evaluating PMEApp levels by ion exchange HPLC (Hewlett Packard 1050) using a Whatman Partisphere SAX (5 μm, 4.6×125 mm) column. Samples were loaded onto the column in 0.3M-ammonium phosphate buffer pH 3.5 and eluted from the column with a gradient to 0.8 M ammonium phosphate pH 3.5.

[5] = 40 mg/kg p.o. vs 8 mg/kg i.v., dog

Nc1ncnc2c1ncn2CCOCP1(=O)OCCC(c2cccc(Cl)c2)O1 (racemic) [Compound 4]
Plasma half-life of breakdown product 9-{2-[1-{(3-chlorophenyl)-1-propyl-3-hydroxy}phosphonomethoxy]ethyl}adenine ([1]; after 30 mg/kg PMEA equivalents p.o. of prodrug, rats): ~2.1 h | Intact prodrug in plasma ([1]; rat, in vivo): observed in plasma | Tolerability (signs of ill health or mortality) ([2]; 8 mg/kg i.v. bolus and 40 mg/kg oral in PEG-400, male beagle dogs): well tolerated | Mean residence time (MRTiv) ([2]; 8 mg/kg i.v. bolus, dog): 1.0 h | Plasma clearance ([2]; 8 mg/kg i.v. bolus, dog): 29.5 mL/min/kg | Volume of distribution (Vss) ([2]; 8 mg/kg i.v. bolus, dog): 1.70 L/kg | Mean terminal elimination half-life t1/2 of intact prodrug, i.v. ([2]; 8 mg/kg i.v. bolus, dog plasma): 0.8 h | i.v. dose excreted in the urine as PMEA ([2]; 8 mg/kg i.v., dog): 2% | i.v. dose excreted in the urine as intact Compound 4 ([2]; 8 mg/kg i.v., dog): approximately 30% | OBAV based on dose normalized oral-to-i.v. AUC ratios [2, 5]: 112% | OBAV based on urinary excretion of Compound 4 [2, 5]: 82% | Half-life of PMEA after oral dosing of the prodrug ([2]; 40 mg/kg p.o., dog): 5.4 h | Mean peak plasma concentration (Cmax) of intact prodrug, oral ([2]; 40 mg/kg p.o., dog): 10200 ng/mL | Mean plasma Cmax of PMEA following oral administration ([2]; 40 mg/kg p.o., dog): 240 ng/mL | Terminal t1/2 after p.o. dosing ([2]; 40 mg/kg p.o., dog): 1.0 h | Tmax of PMEA following oral administration ([2]; 40 mg/kg p.o., dog): 1.4 h | Tmax of intact prodrug, oral ([2]; 40 mg/kg p.o., dog): 0.8 h and 0.81 h | p.o. dose excreted in the urine as PMEA ([2]; 40 mg/kg p.o., dog): 1.7% | p.o. dose excreted in the urine as intact prodrug ([2]; 40 mg/kg p.o., dog): 40% | Cmax ([2]; 40 mg/kg p.o., dog, read-out: Mean peak plasma concentration (Cmax) of intact prodrug, oral): ~24 µM | Cmax ([2]; 40 mg/kg p.o., dog, read-out: Mean plasma Cmax of PMEA following oral administration): ~0.88 µM | % F (orally bioavailable) ([2]; beagle dog, conclusion): ~100% | Fold reduction of systemic PMEA exposure (dose-normalized plasma AUC) versus bis POM PMEA literature ([2]; dog): 18.8 fold | PMEA AUC (dose-normalized plasma) ([2]; dog, after Compound 4): 0.58 | AUC0-12h of PMEA in plasma ([3]; fasted rats): 3.5 µM·h | Fold lower plasma PMEA AUC0-12h than following bis POM PMEA ([3]; rats): 6 fold | Fold lower plasma PMEA Cmax than following bis POM PMEA ([3]; rats): 13 fold | Fold lower urinary levels of PMEA than following bis POM PMEA ([3]; rats): 5 fold | Urinary levels of PMEA ([3]; rats, urine 48 hours after treatment): 4.1 % dose | Rat Hepatocytes, PMEApp formation, 250 μM, AUC 0–4 h [4]: 109.3 nmol·h/g
